# Entries after “also recorded” stand apart in the source; their conditions may differ.
# Assays:
# [1] = system: NICD/MAML1 Notch transcriptional activation complex; experiment: MAML1 rescue: HeLa cells co-transfected with NICD and MAML1-FLAG, 12×CSL luciferase; type: cell-based; settings: 24 hours
# Method: HeLa cells were co-transfected 800 ng of NICD+3 μg of pCDNA3.1 or 800 ng of NICD+1 μg of MAML1-FLAG or 800 ng of NICD+3 μg of MAML1-FLAG expression vectors. To measure Notch pathway activation, pGL4.26-12×CSL luciferase plasmid was also introduced into the cells. SV40 renilla was used as an internal control. Cells transfected with different combinations and amounts of plasmid were treated with DMSO or increasing concentration of 6-(4-Tert-Butylphenoxy)Pyridin-3-Amine (I3) (1, 2.5, 5 and 10 μM) for 24 hours. 12×CSL driven luciferase activity was measured using dual luciferase assay system.
# NICD-GFP overexpression studies were performed using pEGFP-C1-NICD expression plasmid. The FLAG-CMV2 plasmid expressing MAML1-FLAG was a kind gift from Dr. Lizi Wu, Harvard Medical School, Boston.
# To further investigate the mechanism of action of 6-(4-Tert-Butylphenoxy)Pyridin-3-Amine (I3), Applicants speculated that 6-(4-Tert-Butylphenoxy)Pyridin-3-Amine (I3) might be targeting one of the components of the transcriptional activation complex. The over expression of this target protein may titrate out 6-(4-Tert-Butylphenoxy)Pyridin-3-Amine (I3) compound and thus rescue 6-(4-Tert-Butylphenoxy)Pyridin-3-Amine (I3) induced pathway inhibition. […] The Notch pathway activation was measured by introducing 12×CSL luciferase plasmid. […]
# RPMI8402 = experiment: Annexin V apoptosis, RPMI8402; type: cell-based, human; settings: 10 μM, 7 days
# Method: (§1) FIGS. 6A-6D show 6-(4-Tert-Butylphenoxy)Pyridin-3-Amine (I3) induces G0/G1 cell cycle arrest and apoptosis in human T cell acute lymphoblastic leukemia cell lines and human breast cancer cell line HCC1187. […] Percentage of Annexin V positive (apoptotic) cell population was measured using flow cytometry.
# To quantitate the percentage of apoptotic cells, AnnexinV and 7AAD staining was performed. Thymic cells were suspended in 300 μl of 1× AnnexinV binding buffer (BD Biosciences, San Diego, USA) and incubated with 10 μl of AnnexinV-Cy5 antibody and 10 μl of 7AAD (BD Biosciences, San Diego, USA). Samples were incubated for 15 minutes at room temperature. FACS was performed with in one hour of antibody staining.
# This 6-(4-Tert-Butylphenoxy)Pyridin-3-Amine (I3) mediated proliferative arrest could be due to induction of apoptosis or cell cycle arrest during different phases of cell cycle. […] Therefore to further elucidate the mechanisms responsible for 6-(4-Tert-Butylphenoxy)Pyridin-3-Amine (I3) mediated proliferative arrest cell cycle and apoptosis analyses were carried out. […] To investigate cell death, Annexin V staining was performed and proportion of apoptotic (AnnexinV positive) cell population was determined by flow cytometry analyses after 7 days of treatment.
# TALL1 = experiment: Cell cycle analysis (Ki67 and Hoechst stain), TALL1; type: cell-based, human; settings: 10 μM
# Method: as §1
# In addition to induction of apoptosis, the proliferative arrest observed in 6-(4-Tert-Butylphenoxy)Pyridin-3-Amine (I3) treated human leukemic cell lines and breast cancer cell line also appears to be due to cell cycle arrest in G0/G1 phase of the cell cycle. Leukemic cell lines (RPMI8402, KOPTK1 and TALL1) and breast cancer cell lines were treated with 6-(4-Tert-Butylphenoxy)Pyridin-3-Amine (I3) for 48 hours and cell cycle status was determined using Ki67 and Hoechst stain.
# MZB cells in the spleen = experiment: Marginal Zone B cell development in the spleen (flow cytometry); type: in vivo, mouse; settings: 25 mg/kg, 7 consecutive days, analysed day 8
# Method: FIGS. 7A-7C show 6-(4-Tert-Butylphenoxy)Pyridin-3-Amine (I3) mimics genetic loss of Notch2 signalling phenotype in the spleen. Loss of Notch signalling in the spleen leads to a reduction in Marginal Zone B cells (MZB) cells in the spleen. […] Spleens were analyzed on day 8. Using B220 specific antibodies, B cells in the spleen were identified. MZB cells within the B cell compartment were detected using antibodies against CD23 and CD21 cell surface markers.
# Fluorescence activated cell sorting (FACS) analyses were performed on CyAn™ ADP instrument platform for flow cytometry at Flow cytometry core facility, EPFL. DL4 and Notch1 expression in DL4- and N1-HeLa cells was determined using anti-DL4 and anti-N1 antibodies respectively. T cell development in the thymus was investigated using antibodies against CD4, CD8 and TCRβ. MZB cell development was monitored using antibodies against B220, CD21 and CD23. In brief, a single cell suspension was prepared from thymus and spleen. […]
# Applicants hypothesized that 6-(4-Tert-Butylphenoxy)Pyridin-3-Amine (I3) mediated inhibition of Notch2 signalling should lead to a block in MZB cell development in the spleen. MZB cell development was assessed by flow cytometry staining of splenocytes with antibodies directed against B220, CD21 and CD23.
smiles,measurement,setting,value
"CC(C)(C)c1ccc(Oc2ccc(N)cn2)cc1 [I3, 6-(4-Tert-Butylphenoxy)Pyridin-3-Amine]","Notch signalling, NICD + 1 μg MAML1","[1]; 800 ng NICD + 1 μg MAML1-FLAG, I3 1-10 μM",can block Notch signalling in a concentration dependent manner
same,"Notch signalling, NICD alone (no MAML1)","[1]; 800 ng NICD, I3 1, 2.5, 5 and 10 μM",can block Notch signalling in a concentration dependent manner; also recorded: could block Notch signalling activations
same,apoptosis (Annexin V positive cells),RPMI8402,induces significant apoptosis
same,cell cycle status,TALL1; 48 hours,induces an arrest in the G0/G1 phase of the cell cycle
same,increase in cells arrested in G0/G1 phase of the cell cycle,"TALL1; stated jointly for RPMI8402, KOPTK1 and TALL1",20-30%
same,absolute numbers of MZB cells in the spleen,MZB cells in the spleen,loss of MZB cell population in the spleen also reflects in the absolute number of MZB cells; also recorded: causes a reduction the percentage and absolute numbers of MZB cells in the spleen
same,percentage of MZB cells in the spleen,MZB cells in the spleen,leads to a reduction in the percentage of MZB cell population in the spleen; also recorded: causes a significant reduction in the percentage of MZB cells in the spleen; also recorded: causes a reduction the percentage and absolute numbers of MZB cells in the spleen

# Source: patent publication US10054581B1, “Inhibitors of notch signaling pathway and use thereof in treatment of cancers” (Ecole Polytechnique Federale de Lausanne (EPFL), priority 2011, dated 2018)
